Assay results as given in patent publication US6716851B2, “Substituted 2-aryl-4-arylaminopyrimidines and analogs as activators or caspases and inducers of apoptosis and the use thereof” (Cytovia, Inc., priority 2000, dated 2004).
Where a name gives a salt, the structure may show the parent alone.

What was measured:
ZR-75-1 cells = assay: Caspase cascade activation (N-(Ac-DEVD)-N'-ethoxycarbonyl-R110 fluorogenic substrate) in ZR-75-1 cells; type: cell-based, Human; details: ZR-75-1, 48 h incubation; for EC50: Homo sapiens, caspase activation potency; for ZR Ratio 48 hr: caspase activity: ratio of net RFU of test compound to control
Procedure, shortened: (§1)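 EC50 comes from sigmoidal fitting of the net RFU ratio over DMSO control, read at ex 485/em 530 nm 3 h after adding 14 μM Ac-DEVD-R110 in lysolecithin/DTT/PIPES pH 7.2 buffer. Compound (0.016-10 μM final) was applied to cells for 48 h at 37 °C beforehand.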

T-47D cells = assay: Caspase cascade activation (N-(Ac-DEVD)-N'-ethoxycarbonyl-R110 fluorogenic substrate) in T-47D cells; type: cell-based, Human; details: 48 h incubation; for EC50: Homo sapiens, T47D, caspase activation potency, read-out: T47 EC50; for T47 Ratio 48 hr: caspase activity: ratio of net RFU of test compound to control
Procedure, shortened: as §1

Structure (SMILES)	EC50 (ZR-75-1 cells)	ZR Ratio 48 hr (ZR-75-1 cells)	EC50 (T-47D cells)	T47 Ratio 48 hr (T-47D cells)
Cc1cc(C)cc(Nc2cc(C(F)(F)F)nc(-c3cccnc3)n2)c1 [Example 121, 4-(3,5-Dimethylanilino)-2-(3-pyridinyl)-6-(trifluoromethyl)pyrimidine]	380 nM	9.9	480 nM	11.2
COc1cc(Nc2cc(C(F)(F)F)nc(-c3cccnc3)n2)cc(OC)c1.Cl [Example 122, 4-(3,5-Dimethoxyanilino)-2-(3-pyridinyl)-6-(trifluoromethyl)pyrimidine hydrochloride]	192 nM	10.1	44 nM	11.1
Cc1ccc(Cl)c(Nc2cc(C(F)(F)F)nc(-c3cccnc3)n2)c1 [Example 123, 4-(2-Chloro-5-methylanilino)-2-(3-pyridinyl)-6-(trifluoromethyl)pyrimidine]	725 nM	15.8	763 nM	21.2
COc1cc(Nc2cc(C(F)(F)F)nc(-c3cccnc3)n2)cc(C(F)(F)F)c1 [Example 124, 4-(3-Methoxy-5-trifluoromethylanilino)-2-(3-pyridinyl)-6-(trifluoromethyl)pyrimidine]	688 nM	16.3	720 nM	19.9
COc1ccc(Cl)c(Nc2cc(C(F)(F)F)nc(-c3ccc(C(F)(F)F)nc3)n2)c1 [Example 125, 4-(2-Chloro-5-methoxyanilino)-2-[6-(trifluoromethyl)-3-pyridinyl]-6-(trifluoromethyl)pyrimidine]	2240 nM	8.1	3470 nM	4.4
COc1ccc(Br)cc1Nc1cc(C(F)(F)F)nc(-c2cccnc2)n1 [Example 126, 4-(5-Bromo-2-methoxyanilino)-2-(3-pyridinyl)-6-(trifluoromethyl)pyrimidine]	353 nM	5.9	222 nM	12.0
COc1ccc(Br)c(Nc2cc(C(F)(F)F)nc(-c3cccnc3)n2)c1 [Example 127, 4-(2-Bromo-5-methoxyanilino)-2-(3-pyridinyl)-6-(trifluoromethyl)pyrimidine]	550 nM	5.3	279 nM	10.3
Cc1cc(Nc2cc(C(F)(F)F)nc(-c3cccnc3)n2)cc(C(F)(F)F)c1 [Example 128, 4-[3-Methyl-5-(trifluoromethyl)anilino]-2-(3-pyridinyl)-6-(trifluoromethyl)pyrimidine]	> 5000 nM	1.5	> 5000 nM	1.4
COc1cc(Nc2cc(C(F)(F)F)nc(-c3cccnc3)n2)c(OC)cc1Cl [Example 130, 4-(4-Chloro-2,5-dimethoxyanilino)-2-(3-pyridinyl)-6-(trifluoromethyl)pyrimidine hydrochloride]	167 nM	9.7	295 nM	11.3
COc1ccc(Cl)c(Nc2cc(C)nc(N3CCOCC3)n2)c1 [Example 131, 4-(6-Chloro-3-methoxyanilino)-2-morpholino-6-(methyl)pyrimidine]	> 5000 nM	1.2	> 5000 nM	1.2
COc1cc(Nc2cc(C(F)(F)F)nc(-c3cccnc3)n2)c(C(C)=O)cc1OC [Example 134, 4-(2-Acetyl-4,5-dimethoxyanilino)-2-(3-pyridinyl)-6-(trifluoromethyl)pyrimidine]	> 5000 nM	1.5	807 nM	16.5
Cc1cc(Nc2cc(C(F)(F)F)nc(-c3ccccn3)n2)c(C)cc1O.Cl [Example 147, 4-(2,5-Dimethyl-4-hydroxyanilino)-2-(2-pyridinyl)-6-(trifluoromethyl)pyrimidine hydrochloride]	204 nM	8.4	335 nM	13.3
Cc1cc(Nc2cc(C(F)(F)F)nc(-c3cnccn3)n2)c(C)cc1O.Cl [Example 148, 4-(2,5-Dimethyl-4-hydroxyanilino)-(2-pyrazinyl)-6-(trifluoromethyl)pyrimidine hydrochloride]	243 nM	8.4	412 nM	13.8
Cc1cc(Nc2cc(C(F)(F)F)nc(-c3ccncc3)n2)c(C)cc1O [Example 149, 4-(2,5-Dimethyl-4-hydroxyanilino)-2-(4-pyridinyl)-6-(trifluoromethyl)pyrimidine]	46 nM	10.0	75 nM	16.0
COc1cc(Nc2cc(C(F)(F)F)nc(-c3ccccn3)n2)c(OC)cc1Cl.Cl [Example 150, 4-(4-Chloro-2,5-dimethoxyanilino)-2-(2-pyridinyl)-6-(trifluoromethyl)pyrimidine hydrochloride]	133 nM	9.7	135 nM	11.0
COc1cc(Nc2cc(C(F)(F)F)nc(-c3cnccn3)n2)c(OC)cc1Cl.Cl [Example 151, 4-(4-Chloro-2,5-dimethoxyanilino)-(2-pyrazinyl)-6-(trifluoromethyl)pyrimidine hydrochloride]	276 nM	8.6	388 nM	12.0
COc1cc(C)c(Nc2cc(C(F)(F)F)nc(-c3ccccn3)n2)cc1OC.Cl [Example 152, 4-(4,5-Dimethoxy-2-methylanilino)-2-(2-pyridinyl)-6-(trifluoromethyl)pyrimidine hydrochloride]	212 nM	8.6	35 nM	14.6
COc1cc(C)c(Nc2cc(C(F)(F)F)nc(-c3cnccn3)n2)cc1OC.Cl [Example 153, 4-(4,5-Dimethoxy-2-methylanilino)-2-(2-pyrazinyl)-6-(trifluoromethyl)pyrimidine hydrochloride]	146 nM	9.3	43 nM	15.7
COc1cc(C)c(Nc2cc(C(F)(F)F)nc(-c3ccncc3)n2)cc1OC.Cl [Example 154, 4-(4,5-Dimethoxy-2-methylanilino)-2-(4-pyridinyl)-6-(trifluoromethyl)pyrimidine hydrochloride]	14 nM	7.9	22 nM	6.1
Cl.FC(F)(F)Oc1cccc(Nc2cc(C(F)(F)F)nc(-c3ccccn3)n2)c1 [Example 156, 4-(3-Trifluoromethoxyanilino)-2-(2-pyridinyl)-6-(trifluoromethyl)pyrimidine hydrochloride]	2260 nM	4.1	> 5000 nM	1.7
COc1cc(C)c(Nc2cc(C(F)(F)F)nc(-c3cccnc3)n2)cc1OC [Example 157, 4-(4,5-Dimethoxy-2-methylanilino)-2-(3-pyridinyl)-6-(trifluoromethyl)pyrimidine]	197 nM	6.4	43 nM	6.6
COc1cc(Nc2cc(C(F)(F)F)nc(-c3ccncc3)n2)c(OC)cc1Cl.Cl [Example 158, 4-(4-Chloro-2,5-dimethoxyanilino)-2-(4-pyridinyl)-6-(trifluoromethyl)pyrimidine hydrochloride]	133 nM	6.0	509 nM	9.5
COc1cccc(N(C)c2cc(C(F)(F)F)nc(-c3ccccn3)n2)c1 [Example 160, 4-(N-Methyl-3-methoxyanilino)-2-(2-pyridinyl)-6-trifluoromethyl-pyrimidine]	> 5000 nM	1.4	> 5000 nM	1.0
COc1cc(Nc2cc(C(F)(F)F)nc(-c3ccncc3)n2)cc(OC)c1 [Example 161, 4-(3,5-Dimethoxyanilino)-2-(4-pyridinyl)-6-trifluoromethyl-pyrimidine]	86 nM	5.1	79 nM	10.7
COc1ccc(Cl)cc1Nc1cc(C(F)(F)F)nc(-c2ccncc2)n1 [Example 162, 4-(5-Chloro-2-methoxyanilino)-2-(4-pyridinyl)-6-trifluoromethyl-pyrimidine]	360 nM	7.3	272 nM	11.3
COc1cc(Nc2cc(C(F)(F)F)nc(-c3cc(Cl)nc(Cl)c3)n2)cc(OC)c1 [Example 163, 4-(3,5-Dimethoxyanilino)-2-(2,6-dichloro-4-pyridinyl)-6-trifluoromethylpyrimidine]	> 5000 nM	1.6	> 5000 nM	1.1
COc1ccc(Cl)c(Nc2cc(C(F)(F)F)nc(-c3cc(Cl)nc(Cl)c3)n2)c1 [Example 164, 4-(2-Chloro-5-methoxyanilino)-2-(2,6-dichloro-4-pyridinyl)-6-trifluoromethyl-pyrimidine]	> 5000 nM	1.3	> 5000 nM	1.3
FC(F)(F)c1cc(Nc2ccc3[nH]ccc3c2)nc(-c2cccnc2)n1 [Example 166, 4-(1 H-5-Indolyl-amino)-2-(3-pyridinyl)-6-trifluoromethyl-pyrimidine]	532 nM	3.3	870 nM	8.0
COc1ccc(Nc2cc(C)nc(-c3ccccn3)n2)cc1OC [Example 176, 4-(3,4-Dimethoxyanilino)-6-methyl-2-(2-pyridinyl)pyrimidine]	> 5000 nM	1.9	149 nM	4.5
